Measurements: patent US8221728B2, “Silanic para-aminobenzalmalonate-substituted s-triazine compounds and photoprotective compositions comprised thereof” (L'Oreal, priority 2004, dated 2012)
“And” between values parts separate entries of the source, which are not always exact repeats. Equal entries are not always repeated.

Experiments:
[1] = UV absorption spectrum in ethanol; format: physicochemical
Description: 2,4,6-Tris(diethyl 4′-aminobenzalmalonate)-s-triazine (1 g, […]) (Example 1 of Application EP 0,507,691) is dissolved in 5 ml of trimethylsilylethyl alcohol while sparging with nitrogen. The mixture is subsequently heated at reflux for 25 hours with 0.2 g of para-toluenesulphonic acid. After addition of 30 ml of dichloromethane, the organic phase is washed with water and then with an aqueous sodium bicarbonate solution, and dried. It is concentrated under reduced pressure. The residue obtained is purified by chromatography on a silica column (eluent: heptane/AcOEt 85/15). 0.35 g (Yield 32%) of the derivative of Example 2 is collected in the form of a pale yellow gum: • UV (ethanol) λ max=355 nm; ε max=125 250;E1%=965. […]

[2] = Photostability of a film of 5% solution in Miglyol 812 under Oriel solar simulator, HPLC quantification; format: physicochemical; conditions: 5% by weight in Miglyol 812, 1 mg/cm^2 film, irradiated one hour, solar simulator UV-A=14.2 mW/cm^2, UV-B=0.41 mW/cm^2
Description: The two products were dissolved at 5% by weight in the oil Miglyol 812. Approximately 10 mg of oily solution are spread over 10 cm^2 at the surface of a hollow disc of frosted glass; the amount is determined by weighing.
The films of the oily solutions are irradiated for one hour using an Oriel solar simulator (UV-A=14.2 mW/cm^2; UV-B=0.41 mW/cm^2), then extracted with 10 ml of ethanol comprising 10% of isopropanol and subjected to ultrasound for 5 min. The products are quantified by HPLC of the extracts.
HPLC conditions: column: UP5WOD-25QS, 250×4.6 mm, 5 μm, Interchrom; eluent: methanol (Comparative Example 1) and 96% of methanol+4% of water (Example 1); flow rate: 1 ml/min; volume injected: 10 μl; detection: diode array; rt (min): 5.2 (Comparative Example 1) and 13.8 (Example 1).
The degrees of loss are determined by comparison of the amounts of product present in the irradiated samples and in the non-irradiated controls prepared simultaneously and treated in the same way (means over 3 samples; S=surface/mg solution): % loss=100×(So−Sirr)/So

Compound | E1% [1] | ε max [1] | λ max [1] [nm] | % of disappearance (% loss) [2]
2,4,6-tris(di(trimethylsilylmethyl) 4′-aminobenzalmalonate)-s-triazine [Example 1] | 987 | 118 970 | 355 | –
CC(C)COC(=O)C(=Cc1ccc(Nc2nc(Nc3ccc(C=C(C(=O)OCC(C)C)C(=O)OCC(C)C)cc3)nc(Nc3ccc(C=C(C(=O)OCC(C)C)C(=O)OCC(C)C)cc3)n2)cc1)C(=O)OCC(C)C [Compound (prior art), 2,4,6-Tris(diisobutyl 4′-aminobenzalmalonate)-s-triazine] | – | – | – | 11% and 10% and 9%
C[Si](C)(C)CCOC(=O)C(=Cc1ccc(Nc2nc(Nc3ccc(C=C(C(=O)OCC[Si](C)(C)C)C(=O)OCC[Si](C)(C)C)cc3)nc(Nc3ccc(C=C(C(=O)OCC[Si](C)(C)C)C(=O)OCC[Si](C)(C)C)cc3)n2)cc1)C(=O)OCC[Si](C)(C)C [Example 2, 2,4,6-tris(di(trimethylsilylethyl) 4′-aminobenzalmalonate)-s-triazine] | 965 | 125 250 | 355 | –
